Data: ChEMBL document CHEMBL6078677, “Discovery and optimization of tetrahydroacridine derivatives as a novel class of antibiotics against multidrug-resistant Gram-positive pathogens by targeting type I signal peptidase and disrupting bacterial membrane” (Eur J Med Chem, 2025)
Converted amounts (≈) assume the structure as drawn. The source made the active and inactive calls. The calls are words filed in the database; no cut-off is given here.

Assays:
Staphylococcus aureus [1] = assay: microbe, parasite or virus in culture; format: functional; conditions: M92-1, time 20 hrs
Description: Antimicrobial activity against Staphylococcus aureus M92-1 harboring erythromycin resistance rRNA methylase B, tetracycline efflux protein L and oxazolidinone-phenicol transferable resistance gene assessed as inhibition of visible growth of bacteria incubated for 20 hrs by broth microdilution method

Enterococcus faecalis [2] = assay: Antimicrobial activity against Enterococcus faecalis JH2-2 assessed as inhibition of visible growth of bacteria incubated for 20 hrs by broth microdilution method; format: functional
Enterococcus faecium [3] = assay: Antimicrobial activity against Enterococcus faecium MC38 harboring erythromycin resistance rRNA methylase B and oxazolidinone-phenicol transferable resistance gene assessed as inhibition of visible growth of bacteria incubated for 20 hrs by broth microdilution method; format: functional
Staphylococcus aureus [4] = assay: microbe, parasite or virus in culture; format: functional; conditions: M147-2, time 20 hrs
Description: Antimicrobial activity against Staphylococcus aureus M147-2 harboring erythromycin resistance rRNA methylase B, tetracycline efflux protein L and chloramphenicol-florfenicol resistance methylase assessed as inhibition of visible growth of bacteria incubated for 20 hrs by broth microdilution method

Staphylococcus aureus [5] = assay: Antimicrobial activity against Staphylococcus aureus YZSA-21 harboring erythromycin resistance rRNA methylase C assessed as inhibition of visible growth of bacteria incubated for 20 hrs by broth microdilution method; format: functional
Streptococcus suis [6] = assay: microbe, parasite or virus in culture; format: functional; conditions: SH0918, time 20 hrs
Description: Antimicrobial activity against Streptococcus suis SH0918 harboring erythromycin-resistance rRNA methylase B, tetracycline efflux protein O and oxazolidinone phenicol transferable resistance gene assessed as inhibition of visible growth of bacteria incubated for 20 hrs by broth microdilution method

Streptococcus pyogenes = assay: Antimicrobial activity against Streptococcus pyogenes DL02 harboring erythromycin-resistance rRNA methylase B assessed as inhibition of visible growth of bacteria incubated for 20 hrs by broth microdilution method; format: functional
Staphylococcus aureus [7] = assay: Antimicrobial activity against Staphylococcus aureus YZSA-24 harboring erythromycin resistance rRNA methylase C and methicillin resistance gene resistance locus assessed as inhibition of visible growth of bacteria incubated for 20 hrs by broth microdilution method; format: functional
Staphylococcus aureus [8] = assay: Antimicrobial activity against Staphylococcus aureus ATCC 29213 assessed as inhibition of visible growth of bacteria incubated for 20 hrs by broth microdilution method; format: functional
Enterococcus faecium [9] = assay: Antimicrobial activity against Enterococcus faecium HFY01 assessed as inhibition of visible growth of bacteria incubated for 20 hrs by broth microdilution method; format: functional
Streptococcus suis [10] = assay: Antimicrobial activity against Streptococcus suis P1/7 assessed as inhibition of visible growth of bacteria incubated for 20 hrs by broth microdilution method; format: functional
Staphylococcus aureus [11] = assay: Antibacterial activity against methicillin-resistant Staphylococcus aureus YZSA-24 infected in cyclophosphamide-induced neutrophil depleted female ICR mouse model of skin infection assessed as log reduction in bacterial load at 1 %, TOP preadministered with cyclophosphamide for 5 days followed by bacterial administration and measured after 25 hrs of compound administration relative to vehicle group; format: functional
Enterococcus faecium [12] = assay: Antimicrobial activity against Enterococcus faecium QF31 harboring erythromycin resistance rRNA methylase B and chloramphenicol-florfenicol resistance methylase assessed as inhibition of visible growth of bacteria incubated for 20 hrs by broth microdilution method; format: functional
Staphylococcus aureus [13] = assay: Antimicrobial activity against Staphylococcus aureus YZSA-15 harboring erythromycin resistance rRNA methylase C and vancomycin resistance locus assessed as inhibition of visible growth of bacteria incubated for 20 hrs by broth microdilution method; format: functional
Streptococcus agalactiae = assay: Antimicrobial activity against Streptococcus agalactiae DL03 harboring erythromycin-resistance rRNA methylase B assessed as inhibition of visible growth of bacteria incubated for 20 hrs by broth microdilution method; format: functional
Enterococcus faecalis [14] = assay: Antimicrobial activity against Enterococcus faecalis J2 harboring erythromycin-resistance rRNA methylase B and oxazolidinone phenicol transferable resistance gene assessed as inhibition of visible growth of bacteria incubated for 20 hrs by broth microdilution method; format: functional
Enterococcus faecalis [15] = assay: Antimicrobial activity against Enterococcus faecalis ES01 harboring erythromycin-resistance rRNA methylase B and vanB-type vancomycin-resistance locus assessed as inhibition of visible growth of bacteria incubated for 20 hrs by broth microdilution method; format: functional
Klebsiella pneumoniae = assay: Antimicrobial activity against Klebsiella pneumoniae 9-1 assessed as inhibition of visible growth of bacteria incubated for 20 hrs by broth microdilution method; format: functional
[16] = Cytotoxicity against human Caco-2 cells assessed as cell viability at 16 times of MIC incubated for 48 hrs by CCK8 assay (reference value: 99.54 %); format: toxicity, cell-based; conditions: read-out: Activity
[17] = Hemolytic activity in Kunming mouse erythrocytes assessed as hemolysis at 8 times of MIC measured after 1 hrs by absorbance based assay relative to control; format: toxicity, cell-based, Erythrocyte; conditions: read-out: Activity
[18] = Cytotoxicity against human HEp-2 cells assessed as cell viability at 8 times of MIC incubated for 48 hrs by CCK8 assay (reference value: 100 %); format: toxicity, cell-based; conditions: read-out: Activity
[19] = Cytotoxicity against human HEp-2 cells assessed as cell viability at 2 times of MIC incubated for 48 hrs by CCK8 assay (reference value: 100 %); format: toxicity, cell-based; conditions: read-out: Activity
[20] = Cytotoxicity against human Caco-2 cells assessed as cell viability at 2 times of MIC incubated for 48 hrs by CCK8 assay (reference value: 99.54 %); format: toxicity, cell-based; conditions: read-out: Activity
[21] = Hemolytic activity in Kunming mouse erythrocytes measured after 1 hrs by absorbance based assay; format: toxicity, cell-based, Erythrocyte
[22] = Hemolytic activity in Kunming mouse erythrocytes assessed as hemolysis at 4 times of MIC measured after 1 hrs by absorbance based assay relative to control; format: toxicity, cell-based, Erythrocyte; conditions: read-out: Activity
[23] = Cytotoxicity against human Caco-2 cells assessed as cell viability at 8 times of MIC incubated for 48 hrs by CCK8 assay (reference value: 99.54 %); format: toxicity, cell-based; conditions: read-out: Activity
Signal peptidase I = Signal peptidase I (Escherichia coli K-12, UniProt P00803); assay: Binding affinity to recombinant 6His-tagged Escherichia coli LepB (77 to 324 residues) extracted from Escherichia coli BL21 (DE3) cells assessed as dissociation constant by MST analysis
Chain of Signal peptidase I (P00803 whole entry, the tested form may be a part): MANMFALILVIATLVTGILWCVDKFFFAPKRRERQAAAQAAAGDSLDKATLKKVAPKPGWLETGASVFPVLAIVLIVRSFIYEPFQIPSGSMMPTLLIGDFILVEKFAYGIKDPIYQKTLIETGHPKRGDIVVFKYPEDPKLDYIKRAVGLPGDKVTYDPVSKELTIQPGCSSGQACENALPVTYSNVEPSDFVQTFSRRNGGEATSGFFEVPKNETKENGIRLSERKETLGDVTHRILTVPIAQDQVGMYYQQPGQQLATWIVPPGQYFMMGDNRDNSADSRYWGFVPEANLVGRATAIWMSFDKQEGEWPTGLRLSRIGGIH

[24] = Cytotoxicity against human HEp-2 cells assessed as cell viability at 16 times of MIC incubated for 48 hrs by CCK8 assay (reference value: 100 %); format: toxicity, cell-based; conditions: read-out: Activity
Acinetobacter baumannii [25] = assay: Antimicrobial activity against Acinetobacter baumannii 7979 assessed as inhibition of visible growth of bacteria incubated for 20 hrs by broth microdilution method; format: functional
Pseudomonas aeruginosa [26] = assay: Antimicrobial activity against Pseudomonas aeruginosa PA01 assessed as inhibition of visible growth of bacteria incubated for 20 hrs by broth microdilution method; format: functional
Enterococcus faecalis [27] = assay: microbe, parasite or virus in culture; format: functional; conditions: SF23-1, time 20 hrs
Description: Antimicrobial activity against Enterococcus faecalis SF23-1 harboring erythromycin-resistance rRNA methylase B, tetracycline efflux protein L and chloramphenicol-florfenicol resistance methylase assessed as inhibition of visible growth of bacteria incubated for 20 hrs by broth microdilution method

Staphylococcus aureus [28] = assay: Bactericidal activity against Staphylococcus aureus ATCC 29213 assessed as decrease in bacterial number measured within 12 hrs by time-kill kinetics assay; format: functional, organism-based
Staphylococcus aureus [29] = assay: Drug resistance, ratio of MIC for Staphylococcus aureus ATCC 29213 measured after 28 days to MIC for Staphylococcus aureus ATCC 29213 measured after 20 hrs; format: functional
Acinetobacter baumannii [30] = assay: Antimicrobial activity against Acinetobacter baumannii AB11 assessed as inhibition of visible growth of bacteria incubated for 20 hrs by broth microdilution method; format: functional
[31] = Cytotoxicity against human HEp-2 cells assessed as cell viability at 1 time of MIC incubated for 48 hrs by CCK8 assay (reference value: 100 %); format: toxicity, cell-based; conditions: read-out: Activity
Escherichia coli = assay: Antimicrobial activity against Escherichia coli ATCC 25922 assessed as inhibition of visible growth of bacteria incubated for 20 hrs by broth microdilution method; format: functional
Pseudomonas aeruginosa [32] = assay: Antimicrobial activity against Pseudomonas aeruginosa PA14 assessed as inhibition of visible growth of bacteria incubated for 20 hrs by broth microdilution method; format: functional
Staphylococcus aureus [33] = assay: Bactericidal activity against Staphylococcus aureus ATCC 29213 assessed as bacterial killing at 8 times of MIC measured within 12 hrs by time-kill kinetics assay; format: functional, organism-based
[34] = Hemolytic activity in Kunming mouse erythrocytes assessed as hemolysis at 1 time of MIC measured after 1 hrs by absorbance based assay relative to control; format: toxicity, cell-based, Erythrocyte; conditions: read-out: Activity
Salmonella enteritidis = assay: Antimicrobial activity against Salmonella enteritis S1 assessed as inhibition of visible growth of bacteria incubated for 20 hrs by broth microdilution method; format: functional, Salmonella enterica subsp. enterica serovar Enteritidis; conditions: Salmonella enterica
[35] = Cytotoxicity against human Caco-2 cells assessed as cell viability at 4 times of MIC incubated for 48 hrs by CCK8 assay (reference value: 99.54 %); format: toxicity, cell-based; conditions: read-out: Activity
[36] = Hemolytic activity in Kunming mouse erythrocytes assessed as hemolysis at 2 times of MIC measured after 1 hrs by absorbance based assay relative to control; format: toxicity, cell-based, Erythrocyte; conditions: read-out: Activity
Staphylococcus aureus [37] = assay: Bactericidal activity against Staphylococcus aureus ATCC 29213 assessed as log reduction in bacterial number at 4 times of MIC measured after 24 hrs by time-kill kinetics assay; format: functional
[38] = Hemolytic activity in Kunming mouse erythrocytes assessed as hemolysis at 16 times of MIC measured after 1 hrs by absorbance based assay relative to control; format: toxicity, cell-based, Erythrocyte; conditions: read-out: Activity
[39] = Cytotoxicity against human Caco-2 cells assessed as cell viability at 1 time of MIC incubated for 48 hrs by CCK8 assay (reference value: 99.54 %); format: toxicity, cell-based; conditions: read-out: Activity
[40] = Cytotoxicity against human HEp-2 cells assessed as cell viability at 4 times of MIC incubated for 48 hrs by CCK8 assay (reference value: 100 %); format: toxicity, cell-based; conditions: read-out: Activity

CC(=O)NC[C@H]1CN(c2ccc(N3CCOCC3)c(F)c2)C(=O)O1 [LINEZOLID]
MIC (Staphylococcus aureus [1]): 8 µg/mL (≈ 23.7 µM)
MIC (Enterococcus faecalis [2]): 0.5 µg/mL (≈ 1.48 µM)
MIC (Enterococcus faecium [3]): 2 µg/mL (≈ 5.93 µM)
MIC (Staphylococcus aureus [4]): 8 µg/mL (≈ 23.7 µM)
MIC (Staphylococcus aureus [5]): 1 µg/mL (≈ 2.96 µM)
MIC (Streptococcus suis [6]): 8 µg/mL (≈ 23.7 µM)
MIC (Streptococcus pyogenes): < 0.06 µg/mL
MIC (Staphylococcus aureus [7]): 0.5 µg/mL (≈ 1.48 µM)
MIC (Staphylococcus aureus [8]): 1 µg/mL (≈ 2.96 µM)
MIC (Enterococcus faecium [9]): 2 µg/mL (≈ 5.93 µM)
MIC (Streptococcus suis [10]): 0.125 µg/mL (≈ 0.371 µM)
Activity (Staphylococcus aureus [11]): 4.05 log10CFU/ml
MIC (Enterococcus faecium [12]): 2 µg/mL (≈ 5.93 µM)
MIC (Staphylococcus aureus [13]): 0.5 µg/mL (≈ 1.48 µM)
MIC (Streptococcus agalactiae): 1 µg/mL (≈ 2.96 µM)

CCCCCCc1ccc(-c2ccc(/C=C3\CC(C)Cc4c3nc3ccc(OC)cc3c4C(=O)O)cn2)cc1 (racemic)
MIC (Staphylococcus aureus [1]): 4 µg/mL (≈ 7.68 µM)
MIC (Enterococcus faecalis [14]): 4 µg/mL (≈ 7.68 µM)
MIC (Enterococcus faecalis [15]): 4 µg/mL (≈ 7.68 µM)
MIC (Klebsiella pneumoniae): > 128 µg/mL
viability at 48 h, 16 times of MIC [16]: 1.44%
hemolysis at 1 h, 8 times of MIC [17]: 55.8%
viability at 48 h, 8 times of MIC [18]: 39%
viability at 48 h, 2 times of MIC [19]: 94.1%
MIC (Enterococcus faecalis [2]): 8 µg/mL (≈ 15.4 µM)
MIC (Enterococcus faecium [3]): 4 µg/mL (≈ 7.68 µM)
viability at 48 h, 2 times of MIC [20]: 73.5%
MIC (Staphylococcus aureus [4]): 4 µg/mL (≈ 7.68 µM)
HC50 at 1 h [21]: 34.8 µg/mL
hemolysis at 1 h, 4 times of MIC [22]: 0.98%
viability at 48 h, 8 times of MIC [23]: 17.8%
Kd (Signal peptidase I): 20.9 µM
viability at 48 h, 16 times of MIC [24]: 1.91%
MIC (Acinetobacter baumannii [25]): > 128 µg/mL
MIC (Staphylococcus aureus [5]): 4 µg/mL (≈ 7.68 µM)
MIC (Pseudomonas aeruginosa [26]): > 128 µg/mL
MIC (Streptococcus suis [6]): 32 µg/mL (≈ 61.5 µM)
MIC (Enterococcus faecalis [27]): 8 µg/mL (≈ 15.4 µM)
Activity (Staphylococcus aureus [28]): Dose-dependent-effect
MIC (Streptococcus pyogenes): 16 µg/mL (≈ 30.7 µM)
Ratio (Staphylococcus aureus [29]): 4
MIC (Staphylococcus aureus [7]): 4 µg/mL (≈ 7.68 µM)
MIC (Acinetobacter baumannii [30]): > 128 µg/mL
viability at 48 h, 1 time of MIC [31]: 101%
MIC (Escherichia coli): > 128 µg/mL
MIC (Staphylococcus aureus [8]): 4 µg/mL (≈ 7.68 µM)
MIC (Pseudomonas aeruginosa [32]): > 128 µg/mL
Activity (Staphylococcus aureus [33]): Active
MIC (Enterococcus faecium [9]): 4 µg/mL (≈ 7.68 µM)
hemolysis at 1 h, 1 time of MIC [34]: 0%
MIC (Salmonella enteritidis): > 128 µg/mL
viability at 48 h, 4 times of MIC [35]: 49.7%
MIC (Streptococcus suis [10]): 32 µg/mL (≈ 61.5 µM)
hemolysis at 1 h, 2 times of MIC [36]: 0.33%
Activity (Staphylococcus aureus [37]): 2.6 log10CFU/ml
hemolysis at 1 h, 16 times of MIC [38]: 72.5%
viability at 48 h, 1 time of MIC [39]: 99.7%
MIC (Enterococcus faecium [12]): 4 µg/mL (≈ 7.68 µM)
viability at 48 h, 4 times of MIC [40]: 64%
MIC (Staphylococcus aureus [13]): 4 µg/mL (≈ 7.68 µM)
MIC (Streptococcus agalactiae): 8 µg/mL (≈ 15.4 µM)
